Experimental data: patent US20230143612A1 (Arbutus Biopharma Corporation, priority 2020, published 2023)

molecular target: PD-L1 His protein / PD-1 Fc protein (Homo sapiens, UniProt Q9NZQ7); assay: HTRF Assay (PD-1/PD-L1 interaction); assay type: binding; conditions: PD-L1 His 6 nM, PD-1 Fc 6 nM
Outline: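 Compounds tested from 20 μM down to 0.001 μM (3-fold) against 6 nM PD-L1 His and 6 nM PD-1 Fc, 15 min room temperature incubation. Detection after 1 h at room temperature with Tb cryptate anti-6HIS and XL665 anti-human IgG reagents (mixture at 0.35 nM and 6.7 nM), HTRF signal.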

Chain of PD-L1 His protein / PD-1 Fc protein (Q9NZQ7 19-238 limits assumed): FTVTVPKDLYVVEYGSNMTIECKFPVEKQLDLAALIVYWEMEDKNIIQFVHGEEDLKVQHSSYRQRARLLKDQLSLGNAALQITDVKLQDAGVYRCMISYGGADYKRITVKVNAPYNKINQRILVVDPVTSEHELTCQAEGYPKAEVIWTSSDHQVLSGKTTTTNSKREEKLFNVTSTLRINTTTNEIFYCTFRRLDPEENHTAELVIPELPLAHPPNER

SMILES | IC50
COc1nc(-c2cccc(-c3cccc(-c4ccc(CN(C=O)C[C@@H]5CCC(=O)N5)c(OC)n4)c3Cl)c2Cl)ccc1CNC[C@@H]1CCC(=O)N1 [Example 330, N-((6-(2,2′-Dichloro-3′-(6-methoxy-5-(((((S)-5-oxopyrrolidin-2-yl)methyl)amino)methyl)pyridin-2-yl)-[1,1′-biphenyl]-3-yl)-2-methoxypyridin-3-yl)methyl)-N—(((S)-5-oxopyrrolidin-2-yl)methyl)formamide] | 0.8 nM
COc1nc(-c2cccc(-c3cccc(-c4ccn5c(=O)c(CN6CC7(C6)CN(C(C)=O)C7)cnc5c4)c3Cl)c2Cl)ccc1CNC[C@@H]1CCC(=O)N1 [Example 329, (S)-3-((6-Acetyl-2,6-diazaspiro[3.3]heptan-2-yl)methyl)-8-(2,2′-dichloro-3′-(6-methoxy-5-((((5-oxopyrrolidin-2-yl)methyl)amino)methyl)pyridin-2-yl)-[1,1′-biphenyl]-3-yl)-4H-pyrido[1,2-a]pyrimidin-4-one] | 0.1 nM
O=C1CC[C@@H](CNCc2ccc(-c3cccc(-c4cccc(-c5ccn6c(=O)c(CNC[C@@H]7CCC(=O)N7)cnc6c5)c4Cl)c3Cl)nc2OC2CC2)N1 [Example 109, 8-(2,2′-Dichloro-3′-(6-cyclopropoxy-5-(((((S)-5-oxopyrrolidin-2-yl)methyl)amino)methyl)pyridin-2-yl)-[1,1′-biphenyl]-3-yl)-3-(((((S)-5-oxopyrrolidin-2-yl)methyl)amino)methyl)-4H-pyrido[1,2-a]pyrimidin-4-one] | 1.4 nM
COc1nc(-c2cccc(-c3cccc(-c4cc5c(=O)n(C)c(CNC6CC7(COC7)C6)nn5c4)c3Cl)c2Cl)ccc1CNC[C@@H]1CCC(=O)N1 [Example 446, 6-[2-Chloro-3-[2-chloro-3-[6-methoxy-5-[[[(2S)-5-oxopyrrolidin-2-yl]methylamino]methyl]-2-pyridyl]phenyl]phenyl]-3-methyl-2-[(2-oxaspiro[3.3]heptan-6-ylamino)methyl] pyrrolo[2,1-f][1,2,4]triazin-4-one] | 160 nM
COc1nc(-c2cccc(-c3cccc(-c4cc(=O)n5cc(CNC[C@@H]6CCC(=O)N6)ccc5n4)c3Cl)c2Cl)ccc1CNC[C@@H]1CCC(=O)N1 [Example 59, 2-(2,2′-Dichloro-3′-(6-methoxy-5-(((((S)-5-oxopyrrolidin-2-yl)methyl)amino)methyl)pyridin-2-yl)-[1,1′-biphenyl]-3-yl)-7-(((((S)-5-oxopyrrolidin-2-yl)methyl)amino)methyl)-4H-pyrido[1,2-a]pyrimidin-4-one] | 2.9 nM
COc1nc(-c2cccc(-c3cccc(-c4ccn5c(=O)c(CNC[C@H](C)O)cnc5c4)c3Cl)c2Cl)cc(F)c1CNC[C@@H]1CCC(=O)N1 [Example 272, 8-[2-Chloro-3-[2-chloro-3-[4-fluoro-6-methoxy-5-[[[(2S)-5-oxopyrrolidin-2-yl]methylamino]methyl]-2-pyridyl]phenyl]phenyl]-3-[[[(2S)-2-hydroxypropyl]amino]methyl]pyrido[1,2-a]pyrimidin-4-one] | 0.2 nM
COc1nc(-c2cccc(-c3cccc(-c4cn5cc(CNC[C@@H]6CCC(=O)N6)ccc5n4)c3Cl)c2Cl)ccc1CNC[C@@H]1CCC(=O)N1 [Example 99, (S)-5-((((6-(2,2′-Dichloro-3′-(6-(((((S)-5-oxopyrrolidin-2-yl)methyl)amino)methyl)imidazo[1,2-a]pyridin-2-yl)-[1,1′-biphenyl]-3-yl)-2-methoxypyridin-3-yl)methyl)amino)methyl)pyrrolidin-2-one] | 4.8 nM
COc1nc(-c2cccc(-c3cccc(-c4ccn5c(=O)c(CN6CC(C(=O)O)C6)cnc5c4)c3Cl)c2Cl)ccc1CNCCO [Example 188, 1-((8-(2,2′-Dichloro-3′-(5-(((2-hydroxyethyl)amino)methyl)-6-methoxypyridin-2-yl)-[1,1′-biphenyl]-3-yl)-4-oxo-4H-pyrido[1,2-a]pyrimidin-3-yl)methyl)azetidine-3-carboxylic acid] | 0.1 nM
CSc1nc(-c2cccc(-c3cccc(-c4ccn5c(=O)c(CNC[C@@H]6CCC(=O)N6)cnc5c4)c3Cl)c2Cl)ccc1CNC[C@@H]1CCC(=O)N1 [Example 108, 8-(2,2′-Dichloro-3′-(6-(methylthio)-5-(((((S)-5-oxopyrrolidin-2-yl)methyl)amino)methyl)pyridin-2-yl)-[1,1′-biphenyl]-3-yl)-3-(((((S)-5-oxopyrrolidin-2-yl)methyl)amino)methyl)-4H-pyrido[1,2-a]pyrimidin-4-one] | 1 nM
COc1nc(-c2cccc(-c3cc(Cl)cc(-c4ccn5c(=O)c(CNC[C@@H]6CCC(=O)N6)cnc5c4)c3Cl)c2Cl)ccc1CNC[C@@H]1CCC(=O)N1 [Example 141, 3-(((((S)-5-Oxopyrrolidin-2-yl)methyl)amino)methyl)-8-(2,2′,5-trichloro-3′-(6-methoxy-5-(((((S)-5-oxopyrrolidin-2-yl)methyl)amino)methyl)pyridin-2-yl)-[1,1′-biphenyl]-3-yl)-4H-pyrido[1,2-a]pyrimidin-4-one] | 5.8 nM
COc1nc(-c2cccc(-c3cccc(-c4ccn5c(=O)c(C6=NCCC(C(=O)O)N6)cnc5c4)c3Cl)c2Cl)ccc1CNC[C@@H]1CCC(=O)N1 (mixture of isomers) [Example 199, 2-(8-(2,2′-Dichloro-3′-(6-methoxy-5-(((((S)-5-oxopyrrolidin-2-yl)methyl)amino)methyl)pyridin-2-yl)-[1,1′-biphenyl]-3-yl)-4-oxo-4H-pyrido[1,2-a]pyrimidin-3-yl)-3,4,5,6-tetrahydropyrimidine-4-carboxylic acid] | 0.1 nM
COc1nc(-c2cc(F)cc(-c3cccc(-c4ccn5c(=O)c(CNC[C@@H]6CCC(=O)N6)cnc5c4)c3Cl)c2Cl)ccc1CNC[C@@H]1CCC(=O)N1 [Example 86, 8-(2,2′-Dichloro-5′-fluoro-3′-(6-methoxy-5-(((((S)-5-oxopyrrolidin-2-yl)methyl)amino)methyl)pyridin-2-yl)-[1,1′-biphenyl]-3-yl)-3-(((((S)-5-oxopyrrolidin-2-yl)methyl)amino)methyl)-4H-pyrido[1,2-a]pyrimidin-4-one] | 4.1 nM
Cc1c(-c2ccn3c(=O)c(CNC[C@@H]4CCC(=O)N4)cnc3c2)cccc1-c1cccc(-c2ccc3c(c2)CC(NC(=O)[C@@H]2CCCN2)C3)c1Cl (mixture of isomers) [Example 46, (2S)—N-(5-(2-Chloro-2′-methyl-3′-(4-oxo-3-(((((S)-5-oxopyrrolidin-2-yl)methyl)amino)methyl)-4H-pyrido[1,2-a]pyrimidin-8-yl)-[1,1′-biphenyl]-3-yl)-2,3-dihydro-1H-inden-2-yl)pyrrolidine-2-carboxamide] | 520 nM
Cc1c(NC(=O)c2ccc(CNCCO)cn2)cccc1-c1cccc(-c2ccn3c(=O)c(CNCCO)cnc3c2)c1 [Example 2, 5-(((2-Hydroxyethyl)amino)methyl)-N-(3′-(3-(((2-hydroxyethyl)amino)methyl)-4-oxo-4H-pyrido[1,2-a]pyrimidin-8-yl)-2-methyl-[1,1′-biphenyl]-3-yl)picolinamide] | 79 nM
COC(=O)[C@H]1CCN(Cc2cnc3cc(-c4cccc(-c5cccc(-c6ccc(CNC[C@@H]7CCC(=O)N7)c(OC)n6)c5Cl)c4Cl)ccn3c2=O)C1 [Example 192, (S)-Methyl 1-((8-(2,2′-dichloro-3′-(6-methoxy-5-(((((S)-5-oxopyrrolidin-2-yl)methyl)amino)methyl)pyridin-2-yl)-[1,1′-biphenyl]-3-yl)-4-oxo-4H-pyrido[1,2-a]pyrimidin-3-yl)methyl)pyrrolidine-3-carboxylate] | 0.8 nM
